pIC50: −log10 of the molar value.
Tested on: human LDL (LDL lipid peroxidation)
Assay: Inhibition of LDL lipid peroxidation (cupric sulfate-induced, thiobarbituric acid assay)
Assay type: biochemical
Conditions: 250 μg human LDL, compound preincubated 30 min at 42 °C, cupric sulfate 12.5 μM final, 37 °C, 2.5 hours, read-out: ID50 (concentration of test compound required to inhibit 50% of LDL lipid peroxidation)
Experimental: The degree of inhibition of LDL lipid peroxidation was determined by the method of Yagi et al. [Vitamins 39, 105 (1968)].
A 0.5 mL solution containing 250 micrograms (μg) of human LDL was incubated with the test compound, in amounts varying from 0 to 30 μg, for 30 minutes at 42° C. To this mixture was added 1 mL of a cupric sulfate solution (final concentration 12.5 μM) and the mixture was incubated at 37° C. for 2.5 hours. The amount of peroxidation of LDL lipid was determined by the thiobarbituric acid assay. The concentration of test compound required to inhibit 50% of LDL lipid peroxidation (ID50) was determined.

**Q.** With `CC(C)(C)c1cc(SC[Si](C)(C)CSc2cc(C(C)(C)C)c(O)c(C(C)(C)C)c2)cc(C(C)(C)C)c1O` [Compound A, 4,4'-[(Dimethylsilylene)bis(methylenethio)]-bis[2,6-di-t-butyl]phenol] as the compound, how does the pIC50 read?
**A.** 5.02

From patent US5281738A, “bis[4-(2,6-di-alkyl)phenol]silane derivatives as antiatherosclerotic agents” (Merrell Dow Pharmaceuticals Inc., priority 1992, dated 1994)
